Assay results taken from PMC7127469 (European Journal of Medicinal Chemistry, 2010).

How the values were obtained:
Assay type in all cases: cell-based
punta toro virus = assay: microbe, parasite or virus in culture; settings: Vero, virus m, Vero cells
para-influenza-3 virus = assay: organism not typed; settings: Vero, virus i, Vero cells
sindbis virus = assay: microbe, parasite or virus in culture; settings: Vero, virus k, Vero cells
coxsakie virus B4 = assay: organism not typed; settings: Vero
coxsackie virus B4 = assay: microbe, parasite or virus in culture; settings: Enterovirus B, B4, HeLa, coxsackie virus B4, HeLa cells
reovirus-1 = assay: organism not typed; settings: Vero, virus j, reovirus-1, Vero cells
influenza A H3N2 subtype = assay: Antiviral assay, inhibition of virus-induced cytopathic effect, MDCK cells
influenza A H1N1 subtype = assay: as above
vaccinia virus = assay: microbe, parasite or virus in culture; settings: Orthopoxvirus vaccinia, HEL
[1] = tested on: herpes simplex virus-1(KOS); assay: microbe, parasite or virus in culture; settings: Human alphaherpesvirus 1, HEL, virus d, HEL cells
[2] = tested on: herpes simplex virus-2 (G); assay: microbe, parasite or virus in culture; settings: Human alphaherpesvirus 2, HEL, virus e, HEL cells
[3] = tested on: Vesicular stomatitis virus; assay: microbe, parasite or virus in culture; settings: HEL
feline herpes virus = assay: organism not typed; settings: CRFK, virus o, CRFK cells
influenza B = assay: Antiviral assay, inhibition of virus-induced cytopathic effect, MDCK cells
[4] = tested on: Vesicular stomatitis virus; assay: microbe, parasite or virus in culture; settings: HeLa
[5] = virus q, influenza A H3N2 subtype, MDCK cells
[6] = virus p, influenza A H1N1 subtype, MDCK cells

In the case of `Nc1ncnc2c1ncn2C[C@H](O)CO` [(S)-DHPA], the EC50 (punta toro virus) is reported as > 250 µM, the EC50 (para-influenza-3 virus) is reported as > 250 µM and the EC50 (sindbis virus) is reported as > 250 µM. The EC50 (coxsakie virus B4) was > 250 µM, the EC50 (coxsackie virus B4) was > 250 µM and the EC50 (reovirus-1) was > 250 µM.

`NC12CC3CC(CC(C3)C1)C2` [Amantidin] showed an EC50 (influenza A H3N2 subtype; [5]) of 4 µM and an EC50 (influenza A H1N1 subtype; [6]) of 45 µM.

For `O=c1[nH]c(=O)n([C@H]2C[C@H](O)[C@@H](CO)O2)cc1/C=C/Br` [Brivudine], the EC50 (vaccinia virus) was 2 µM, the EC50 [1] was 0.08 µM and the EC50 [2] was 50 µM. For the same molecule, the EC50 [3] was > 250 µM.

With `Nc1nc(O)c2ncn(COC(CO)CO)c2n1` [Ganciclovir] the EC50 (feline herpes virus) was 2.6 µM, the EC50 (vaccinia virus) was > 100 µM and the EC50 [1] was 0.03 µM. For the same molecule, the EC50 [2] was 0.03 µM and the EC50 [3] was > 100 µM.

`CCC(CC)O[C@@H]1C=C(C(=O)O)C[C@H](N)[C@H]1NC(C)=O` [Oseltamivir-carboxylate] was tested, and the EC50 (influenza B) was 4 µM, the EC50 (influenza A H3N2 subtype; Influenza A virus, H3N2, MDCK) was 1.7 µM and the EC50 (influenza A H1N1 subtype; Influenza A virus, H1N1, MDCK) was 0.07 µM.

`NC(=O)c1ncn([C@@H]2O[C@H](CO)[C@@H](O)[C@H]2O)n1` [Ribavirin] showed an EC50 (punta toro virus) of 50 µM, an EC50 (para-influenza-3 virus) of 95 µM and an EC50 [4] of 10 µM. The EC50 (vaccinia virus) was 85 µM, the EC50 (coxsakie virus B4) was > 250 µM and the EC50 [1] was 10 µM. For the same molecule, the EC50 [2] was 50 µM, the EC50 (coxsackie virus B4) was 30 µM and the EC50 (influenza B) was 9 µM. For the same molecule, the EC50 (reovirus-1) was 250 µM, the EC50 [3] was > 250 µM and the EC50 (influenza A H3N2 subtype; Influenza A virus, H3N2, MDCK) was 9 µM. It also gave an EC50 (influenza A H1N1 subtype; Influenza A virus, H1N1, MDCK) of 7 µM.

With `CC(N)C12CC3CC(CC(C3)C1)C2` (centres unmarked) [Rimantidin] the EC50 (influenza A H3N2 subtype; [5]) was 0.8 µM and the EC50 (influenza A H1N1 subtype; [6]) was 20 µM.
